Measured values taken from paper PMC11359296, “Poly(2-Deoxy-2-Methacrylamido-D-Glucose)-Based Complex Conjugates of Colistin, Deferoxamine and Vitamin B12: Synthesis and Biological Evaluation” (Pharmaceutics, 2024).
Counter-ions that a name gives are not always drawn. Where a SMILES comes first, the peptide text is derived from it. Bridges are numbered along the chain shown (N, C = ends). [ ]: non-standard residue; d: D form. The star is where a group is joined. Octanoyl(6-Me) = CCC(C)CCCCC(=O)*; Dab = NCC[C@H](N)C(=O)O

Key:
Caco-2 monolayer = assay: Caco-2 cell permeability assay; assay type: in vitro ADME, human; conditions: 21 days culture, apical to basolateral, 0.5 mg/mL according to CT content in 0.01 M phosphate buffer pH 7.2, PBS basolateral, 2 h, sampled every 30 min, B12 by spectrophotometry, CT by HPLC, mean, n = 3
Procedure: (§1) The human colon adenocarcinoma cells (Caco-2) obtained from the Cell Culture Collection of the Institute of Cytology RAS (St. Petersburg, Russia) were used to study cell permeability. The study was carried out as described elsewhere. Briefly, Caco-2 cells were cultured in Dulbecco’s modified Eagle medium (DMEM, Biolot, St. Petersburg, Russia) containing L-glutamine, streptomycin/penicillin and 10% FBS in cell culture flasks (area 75 cm^2, Jet Biofil, Guangzhou, China) at 37 °C in a CO2 incubator under humidified conditions. The cultured cells were re-seeded into a new cell culture flask (1:6 ratio) when the cells reached 80–90% confluence. […] The vitamin B12 content and the content of B12-containing conjugates equivalent to vitamin B12 were determined spectrophotometrically, and the CT transferred to the lower chamber was determined by HPLC analysis as described in Section 2.2.2.
(§2) The Papp was calculated as follows:(2) Papp=dQ/dt∗1/A∗C0 where Papp is the apparent permeability coefficient (cm/s), dQ/dt is the permeation rate (µg/s), A is the area of the monolayer (0.3 sm^2), and C0 is the concentration of the test substance in the apical chamber at the initial time point (µg/mL).
(§3) In the case of the CT release and conjugate stability experiments, each assay was performed in three repeats. […] The cell permeability assay and antimicrobial activity were analyzed with n = 3 and 4, respectively. […]

P. aeruginosa = conditions: concentration range of 0.25–64 µg/mL; cited from earlier work
Text: The antibacterial activity of free CT and its polymeric conjugates was examined against P. aeruginosa. […] When analyzing the results of the MIC values for the conjugates studied, the following trends can be distinguished.

[1] = pH 7.4 and 37 °C; cited from earlier work
Procedure: The stability results of PMAG(10)-(DFOA,CT) conjugates with hydrolyzable (aldimine) bonds and reduced aldimine bonds in different media are summarized in Table 4. It was shown that the release in the buffer and the simulated biorelevant medium was consistent. […] Under gastric conditions, the release after 2 h was 20–26%, whereas under intestinal conditions, a release of 6–12% was detected.

[2] = tested on: Human embryonic kidney cells (HEK 293); assay: Cytotoxicity, MTT assay; assay type: cell-based; conditions: HEK 293, MTT, 72 h, n = 6
Procedure: Human embryonic kidney cells (HEK 293) purchased from the Cell Culture Collection of the Institute of Cytology RAS (St. Petersburg, Russia) were used to study the cytotoxicity of the conjugates. HEK 293 cells were cultured at 37 °C in a humidified atmosphere containing 5% CO2 in modified Eagle’s nutrient medium (MEM, Gibco, Billings, MT, USA) containing 1% essential amino acids, 1% L-glutamine, 50 μg/mL streptomycin, 50 U/mL penicillin, and 10 vol% thermally inactivated fetal bovine serum (FBS, HyClone, Logan, UT, USA). A total of 10^4 cells/100 µL/well was seeded into an adhesive 96-well plate and cultured for 1 day. After that, the medium was removed, and 100 µL of MEM with various concentrations of the test conjugates (4–1000 μg/mL with respect to the CT content) was added to each well with cells and incubated for 72 h. […] After the removal of the supernatant, formazan crystals produced by the metabolically viable cells were dissolved in DMSO (50 μL/well) and transferred to clean wells, followed by measuring the absorbance of the solutions at 570 nm using a multiwell plate reader (ThermoFisher Multiskan Labsystems, Waltham, MA, USA).
as §3

[3] = Caco-2 cell permeability assay; assay type: in vitro ADME, human; conditions: Caco-2 monolayer, 21 days culture, apical to basolateral; 0.5 mg/mL according to CT content in 0.01 M phosphate buffer pH 7.2; PBS basolateral; 2 h, sampled every 30 min; B12 by spectrophotometry, CT by HPLC; mean, n = 3; read-out: apparent permeability coefficient (Papp)
Procedure: as §1, §2, §3

In the case of cyanocobalamin [vitamin B12], the “apparent permeability coefficient (Papp)” value (Caco-2 monolayer) is reported as ~ 77 × 10^−6 cm/s.
In the case of CC(=O)N(O)CCCCCNC(=O)CCC(=O)N(O)CCCCCNC(=O)CCC(=O)N(O)CCCCCN [DFOA, deferoxamine methanesulfonate salt], the “antibacterial properties against P. aeruginosa” value (P. aeruginosa) is listed as “Neither DFOA nor PMAG is known to possess antibacterial properties”.
For CCC(C)CCCCC(=O)N[C@@H](CCN)C(=O)N[C@H](C(=O)N[C@@H](CCN)C(=O)N[C@H]1CCNC(=O)[C@H]([C@@H](C)O)NC(=O)[C@H](CCN)NC(=O)[C@H](CCN)NC(=O)[C@H](CC(C)C)NC(=O)[C@@H](CC(C)C)NC(=O)[C@H](CCN)NC1=O)[C@@H](C)O (stereo partly drawn) [CT, Polymyxin E (colistin, CT) sulfate salt] ({Octanoyl(6-Me)}-[Dab]T[Dab][Dab][Dab][dL]L[Dab][Dab]T; lactam 4-C; N-terminus assumed), the “half-life of CT” value [1] is listed as 70 h, the “concentration up to which no toxicity was found” value ([2]; 4–1000 μg/mL with respect to the CT content) is listed as at most 250 µg/mL and the “cytotoxicity (in words)” value ([2]; at a concentration of 500 μg/mL (with respect to CT content)) is listed as “moderate cytotoxicity”. For the same compound, the Papp A→B [3] was about 3 ×10⁻⁶ cm/s.
